Assay results reported in ChEMBL document CHEMBL1130514, “Design and synthesis of conformationally constrained arginal thrombin inhibitors” (Bioorg Med Chem Lett, 1997).
Where a SMILES comes first, the peptide text is derived from it. [ ]: non-standard residue; d: D form. The star is where a group is joined. dNMePhg = CN[C@@H](C(=O)O)c1ccccc1; PhAc = O=C(Cc1ccccc1)*

Assays:
Plasminogen = Plasminogen (Homo sapiens, UniProt P00747); experiment: In vitro ability to inhibit the activity of Plasmin
Serine protease 1 = target: T1, Serine protease 1 (Bos taurus, UniProt P00760); experiment: In vitro ability to inhibit the activity of Trypsin
T1 sequence (P00760 whole entry): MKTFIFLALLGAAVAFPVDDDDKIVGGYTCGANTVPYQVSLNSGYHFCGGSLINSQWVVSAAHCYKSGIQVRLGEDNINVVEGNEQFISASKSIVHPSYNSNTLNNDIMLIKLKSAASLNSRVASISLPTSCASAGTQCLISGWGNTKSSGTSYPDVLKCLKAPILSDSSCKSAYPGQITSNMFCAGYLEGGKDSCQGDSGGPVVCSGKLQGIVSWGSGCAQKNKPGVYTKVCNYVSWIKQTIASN

Prothrombin = Prothrombin (Homo sapiens, UniProt P00734); experiment: In vitro ability to inhibit the activity of human alpha Thrombin

Plasminogen, sequence (P00747 97-580 limits assumed): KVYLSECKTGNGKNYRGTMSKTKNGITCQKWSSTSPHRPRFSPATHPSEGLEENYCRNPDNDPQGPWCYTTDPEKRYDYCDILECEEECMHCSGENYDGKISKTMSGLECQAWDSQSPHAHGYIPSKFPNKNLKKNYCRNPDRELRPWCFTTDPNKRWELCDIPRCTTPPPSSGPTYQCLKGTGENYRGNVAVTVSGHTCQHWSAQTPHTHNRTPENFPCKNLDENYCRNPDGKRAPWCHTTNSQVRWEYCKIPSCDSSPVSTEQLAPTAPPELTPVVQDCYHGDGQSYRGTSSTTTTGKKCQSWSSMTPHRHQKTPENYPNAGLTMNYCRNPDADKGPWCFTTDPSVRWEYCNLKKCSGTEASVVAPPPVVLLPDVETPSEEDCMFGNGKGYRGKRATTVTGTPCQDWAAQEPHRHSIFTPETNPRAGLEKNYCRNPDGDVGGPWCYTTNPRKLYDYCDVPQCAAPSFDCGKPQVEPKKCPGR
Plasminogen, sequence (P00747 581-810 limits assumed): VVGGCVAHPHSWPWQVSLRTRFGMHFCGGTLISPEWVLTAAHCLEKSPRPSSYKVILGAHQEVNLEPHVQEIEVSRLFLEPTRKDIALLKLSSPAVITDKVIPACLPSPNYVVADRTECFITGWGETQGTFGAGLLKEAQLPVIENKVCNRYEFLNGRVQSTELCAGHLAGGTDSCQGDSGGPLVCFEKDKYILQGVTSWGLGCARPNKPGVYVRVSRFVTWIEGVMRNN

IC50 (Plasminogen)	IC50 (Serine protease 1)	IC50 (Prothrombin)	Compound
41 µM	7.2 µM	1.6 µM	N=C(N)NCCC[C@@H](C=O)NC(=O)[C@@H]1CCCN1C(=O)Cc1ccccc1 (PhAc-Pro-Arg-aldehyde)
–	–	3.9 µM	CC(=O)N[C@@]1(Cc2ccccc2)CC[C@H]2CC[C@@H](C(=O)N[C@H]3CCCN(C(=N)N)C3O)N2C1=O (stereo partly specified)
0.5 µM	0.02 µM	–	CN[C@H](Cc1ccccc1)C(=O)N1CCC[C@H]1C(=O)N[C@H](C=O)CCCN=C(N)N
–	–	1.4 µM	N=C(N)N1CCC[C@H](NC(=O)[C@@H]2CC[C@@H]3CCCC(Cc4ccccc4)C(=O)N32)C1O (stereo partly specified)
–	–	4.6 µM	N=C(N)N1CCC[C@H](NC(=O)[C@@H]2CC[C@@H]3CCC(Cc4ccccc4)C(=O)N32)C1O (stereo partly specified)
10 µM	–	0.11 µM	N=C(N)N1CCC[C@H](NC(=O)[C@@H]2CC[C@@H]3CCC[C@H](NS(=O)(=O)Cc4ccccc4)C(=O)N32)C1O (stereo partly specified)
800 µM	5 µM	–	CC1CNc2c(cccc2S(=O)(=O)N[C@@H](CCCNC(=N)N)C(=O)N2CCC(C)C[C@@H]2C(=O)O)C1 (single isomer, unassigned) [ARGATROBAN]
–	–	0.026 µM	CN[C@@H](C(=O)N1CCC[C@H]1C(=O)N[C@H](C=O)CCCNC(=N)N)c1ccccc1 (H-[dNMePhg]-Pro-Arg-aldehyde)
10 µM	–	0.11 µM	N=C(N)N1CCC[C@H](NC(=O)[C@@H]2CC[C@@H]3CCC[C@H](NS(=O)(=O)c4cccc5ccccc45)C(=O)N32)C1O (stereo partly specified)
74 µM	24 µM	4.3 µM	CC(=O)N[C@H]1CCC[C@H]2CC[C@@H](C(=O)N[C@H]3CCCN(C(=N)N)C3O)N2C1=O (stereo partly specified)

Compound	IC50 (Plasminogen)	IC50 (Serine protease 1)	IC50 (Prothrombin)
CC1CNc2c(cccc2S(=O)(=O)N[C@H]2CCC[C@H]3CC[C@@H](C(=O)N[C@H]4CCCN(C(=N)N)C4O)N3C2=O)C1 (stereo partly specified)	1.04 µM	0.1 µM	0.018 µM
